Laboratory results published in publication PMC3213642 (The Biochemical journal, 2011).

B1: N-terminal His-tagged FlaI^E336A (Walker B mutant) (enzyme, S. acidocaldarius DSM639, UniProt Q4J9L0 1-513, looked up)
chain: MSFVEDYLTKLQERPTIIENPNILKGSKIFNAIYRVDDFVYIHIQSIKSEDGYNQYNVIEPPRPTHDEMEEIEEKFALSIGDKEPPEDTKEKEKLIRSILDKILLRMRLSVPKEYVIYHFIRDKLYTGSLEPLIRDPYIEDISIPGLGHVYIVHKVFGPMRTSIKFENYEELDNLIVSLSEKSYRPVSHNRPVVDASLPDGSRVNFVYGVDISRRGSNLTVRKFSRVPTSITQLIMFGTLSSMMAAYIWTMLDEGMNLFVCGETASGKTTTLNAITAFIPPNLKIVTIEDTPELTVPHSNWVAEVTRETGGEGTIKLFDLLKAALRQRPNYILVGAIRDKEGNVAFQAMQTGHSVMATFHAANITTLIQRLTGYPIEVPKSYINNLNIALFQTALYDKKGNLIRRVVEVDEIIDIDPVTNDVVYIPAFTYDSVQDKMLFAGKGSSYLIENKIAVKRGIDRRNIGLLYDELQMRSRFLNLLVEKKIFNYYDVWDYILRARQMGLEEAIKYVSNI

Columns and labels:
FlaI = FlaI (Sulfolobus acidocaldarius, UniProt Q4J9L0, E336A); assay: size-exclusion chromatography and SAXS, hexamerization; assay type: binding; conditions: SAXS: pH 7.0, 200 mM NaCl, 1 mM ATP, 2.5 mM MgCl2, 20 °C
SAXS = molecular target: the molecule itself; assay: SAXS

Row | Molecule | size-exclusion chromatography and SAXS, hexamerization (FlaI) | stoichiometry N (SAXS)
1 | Nc1ncnc2c1ncn2[C@@H]1O[C@H](COP(=O)(O)OP(=O)(O)OP(=O)(O)O)[C@@H](O)[C@H]1O [ATP] | FlaI^E336A with ATP clearly forms a hexameric ring similar to the one determined for GspE | –
2 | B1 | – | 6
